For series [1] the following is noted: literature; cited from earlier work.
Series [2] is described as follows: NINCDS Maximal Electroshock Seizure Test (MES). It counts as in vivo, mice. The conditions noted are these: for minimal effective dose: read-out: MES: dosage level that elicited protection. The method, then: (§1) 1. Neurological Activity Tests. […] Compounds were evaluated for anticonvulsant activity in two seizure models, the maximal electroshock seizure (MES) test and the subcutaneous pentylenetetrazol (Metrazol) seizure threshold (scMet) test.
The Maximal Electroshock Seizure Test was performed according to the method described by Swinyard and coworkers,* wherein a drop of 0.9% saline is instilled in each eye prior to application of corneal electrodes. Seizures are elicited with a 50 Hz alternating current of 50 mA (5 to 7 times that necessary to elicit minimal electroshock seizures) delivered for 0.2 sec via corneal electrodes. This stimulus will produce a maximal seizure in all normal mice. The maximal seizure typically consists of a short period of initial tonic flexion and a prolonged period of hind limb tonic extension, followed by terminal clonus. The seizure lasts about 22 seconds. Abolition of the hind limb tonic extensor component of the seizure is defined as protection and indicates anticonvulsant activity in the test compound.
(§2) The ability of a compound to prevent maximal electroshock seizures is believed to correlate with its ability to prevent the spread of seizure discharge through neural tissue. Activity against maximal electroshock seizures is thought to indicate potential efficacy in the treatment of major motor (grand mal) seizures. […] Selective action in the test is believed to indicate potential efficacy against absence (petit mal) seizures.
(§3) As described earlier, the MES, scMet and Rotorod tests were performed one-half hour and four hours after administration of each compound.
(§4) In the Secondary Evaluation, median effective doses (ED50) are determined in the MES, scMet and Rotorod assays using the procedures defined in Pharmacology, 95, 99-113 (1949).
(§5) Separate groups of animals are used for each time period. The times of peak toxic and anticonvulsant effect are taken from the resulting graph of percent of animals responding vs. time, and the determinations of median effective doses are performed at those times.
A general note: In the maximal electroshock model the usual endpoint is tonic extension of the hind limbs.

Series [3] is described as follows: NINCDS Subcutaneous Pentylenetetrazol (Metrazol) Seizure Threshold Test (scMet). Format: in vivo, mice. The note with it: for minimal effective dose: sc, read-out: scMet: dosage level that elicited protection. As for the experimental part: as §1
Subcutaneous Pentylenetetrazol (Metrazol) Seizure Threshold Test (scMet) produces threshold (clonic) seizures. Pentylenetetrazol is administered subcutaneously as a threshold 0.5% solution (in 0.9% sodium chloride) in a loose fold of skin on the back of the neck in a dose of 85 mg/kg. […] Metrazol is given 10 minutes before the beginning of the test to allow for the delay in onset of Metrazol action. The animal is observed for 30 minutes. Failure to observe even a threshold seizure (a single episode of clonic spasms at least 5 seconds in duration) is defined as protection and indicates anticonvulsant activity in the test compound. These two methods of seizure provocation reliably elicit well-characterizied seizure phenomena.
as §2, §3, §4, §5

Series [4] is described as follows: NINCDS primary evaluation, overall classification. Format: in vivo, mice. The conditions noted are these: primary evaluation. As for the experimental part: (§6) 1. Neurological Activity Tests. The biological testing program is designed to evaluate the following four aspects of drug action: (1) the existence and specificity of anticonvulsant activity; (2) the toxicity, particularly to the central nervous system; and, if the results of (1) and (2) are favorable, (3) the potency and protective index, a comparison between toxic and effective dose and (4) the time course of activity. Compounds were evaluated for anticonvulsant activity in two seizure models, the maximal electroshock seizure (MES) test and the subcutaneous pentylenetetrazol (Metrazol) seizure threshold (scMet) test.
(§7) Specific anticonvulsant evaluations performed by NINCDS using MES, scMet and Rotorod assays are presented in Tables III & IV for fourteen new compounds as well as several known compounds. Table III centers attention on 2-substituted-3-o-tolyl-4-(3H)-quinazolinones while Table IV includes the findings for various other 2,3-disubstituted-4(3H)-quinazolinones. As described earlier, the MES, scMet and Rotorod tests were performed one-half hour and four hours after administration of each compound. The tables identify the dosage level that elicited a positive result, such as protection against MES and scMet induced seizures, or loss of balance on the rotorod.

A short description of series [5]: NINCDS rotorod ataxia test (minimal neurotoxicity). It counts as in vivo, mice. The method, then: as §6
Central nervous system toxicity was evaluated in the rotorod ataxia test. This test is designed to detect minimal neurotoxicity. The animal is placed on a 1-inch diameter knurled plastic rod rotating at 6 rpm. Normal mice can remain indefinitely on a rod rotating at this speed. Neurological deficit is defined as the failure of the animal to remain on the rod for at least 1 minute. This test has a clear end-point, is quantifiable and correlates well with the clinical assessment of minimal toxicity.
as §7
In the Secondary Evaluation, median effective doses (ED50) are determined in the MES, scMet and Rotorod assays using the procedures defined in Pharmacology, 95, 99-113 (1949). In addition, each compound's anticonvulsant activity and neurotoxicity over time are determined by measuring the effect of an intraperitoneally administered estimated median effective dose on maximal electroshock seizures and rotorod performance at intervals of 1/2, 1, 2, 3, 4, 6 and 8 hours.
as §5

The conditions of series [6]: literature; cited from earlier work. This is another data set of the same source.
The conditions of series [7]: literature, mice; cited from earlier work.
Series [8] is described as follows: NPP lethality (estimated LD50). The conditions noted are these: mouse, in vivo, ip. The method, then:
(§8) The procedures for the determination of a neuropharmacological profile involved white male mice of the Carworth Farm Strain CF-1 weighing 18 to 22 grams. […] Intraperitoneal injections were administered in logarithmic progression and sequentially. The dose levels employed routinely were 10, 30, 100 and 300 mg/kg, using four male mice at each dose level. Since this test was conducted in a sequential manner, the first does administered was at 300 mg/kg. […] Approximately thirty-eight signs and symptoms of pharmacological activity can be identified.
(§9) The animals were observed continously for one hour and, if no signs of pharmacological or toxicological activity were present at the end of the first hour, they were intermittently checked for activity every fifteen minutes thereafter for two consecutive hours. […] The observation period began immediately following the injection and the animals were then continuously observed for three hours and intermittently checked thereafter for forty-eight hours. The animals were observed and signs and symptoms of pharmacological activity were recorded continuously until no further symptoms developed and until the symptoms that appeared were no longer present. […] In such instances, the animals were observed beyond this period until they returned to normal. Routinely, the number of animals alive at the end of the forty-eight hour observation period was recorded and the LD50 estimated.
(§10) Scores for behavioral symptoms, including depression, righting reflex and ataxia, are the actual numbers reported. Protection against MES is reported as a percentage. Since four animals were involved in this test, the findings are 0% for none protected, 25% for one out of four, etc. […] In order to maintain reasonable uniformity in the reporting of results, each entry corresponds to a dosage level of 100 mg/kg. Any variations from that dosage are indicated.

Series [9] is described as follows: Neuropharmacological Profile (NPP): general CNS observational screen (depression, righting reflex, ataxia). The conditions noted are these: at 30 mg/kg (value in parentheses), i.p., mice, score 0-8. As for the experimental part: Representative compounds according to the present invention were tested for central nervous system activity by Pharmakon Laboratories of Scranton, Pennsylvania. The battery of general observational procedures used is referred to herein as a Neuropharmacological Profile (NPP). Additionally, representative compounds were tested in the Anticonvulsant Screening Project of the National Institutes of Neurological and Communicative Disorders and Stroke (NINCDS) at the University of Utah under the direction of Dr. Ewart A. Swinyard.
as §8, §9
The animals are free to move about for evaluation of spatial orientation, alertness and spontaneous motor activity.
(§11) Since this is a general CNS screening procedure, only peak effects were recorded. Certain measures of behavior and neurological deficit were scored in terms of intensity of effect, while most others were determined on an all or none basis. Thus, in scoring measures which were normally present, e.g., spontaneous activity and skin color, an increase in score from 4 to 8 was used to denote stimulation or enhancement of skin color, whereas a decrease in score from 4 to 0 indicated depression or cyanosis. For scoring measures normally absent, e.g., depression, righting reflex and ataxia, activity was reflected as an increase in score from 0 to 8. The 0 to 8 scale was rounded off so that the actual ratings are only 0, 2, 4, 6 and 8. The compounds were also evaluated for anticonvulsant activity by using the maximal electroshock seizure (MES) test. In the MES study, four mice were dosed intraperitoneally at 100 mg/kg and challenged thirty minutes later with 50 mA, 0.2 second duration of electroshock. A protection ratio (number of mice protected from tonic extension .div. number of mice tested) was then established.
At the termination of the test, the results were recorded and tabulated.
as §10

Series [10] in a line: NPP maximal electroshock seizure (MES) protection. It counts as in vivo, white male mice of the Carworth Farm Strain CF-1. The note with it: Mus musculus, ip; conducted at 30 mg/kg i.p. The method, then: as §8, §11, §10
The conditions of series [11]: literature; cited from earlier work. The source holds these as a separate data set.
Where [12] appears, read: Mus musculus, ip, after 4 hr (value in parentheses).
The mark [13] stands for this setting: Mus musculus, after 4 hr (value in parentheses).
[14] abbreviates: after 4 hr (value in parentheses).
The mark [15] stands for this setting: Mus musculus, ip, secondary evaluation, at time of peak effect.

One may read the ED50 as the dose at which the effect has come halfway, by size or by number of responders. Broadly, the LD50 is the dose expected to kill half of the subjects tested. The term TD50 denotes the dose at which the toxic effect under study appears in half of the subjects.

A value given as a limit tells only on which side of the number the result lay.

Take `Cc1ccccc1-n1c(C)nc2c(c1=O)CCCC2`: the “sedative-hypnotic / hypnotic / depressant activity (in words)” value in series [1] is on record as “lack of hypnotic activity”.
With `Cc1ccccc1N1C(=O)c2ccccc2NC1C` (stereo not shown) [1,2-dihydro derivative], the “sedative-hypnotic / hypnotic / depressant activity (in words)” value in series [1] is “abolishes depressant activity”.
In the case of `CCN(CC)c1ccc(-n2c(C)nc3ccccc3c2=O)cc1` [2-methyl-3-(p-diethylaminophenyl)-4(3H)-quinazolinone], the “sedative-hypnotic / hypnotic / depressant activity (in words)” value in series [1] is “equal hypnotic activity to methaqualone”.
Regarding `Cc1ccccc1-n1c(C)nc2cc(N)ccc2c1=O` [H and 7-amino, reference compound], the minimal effective dose in series [2] (Mus musculus, ip, after 0.5 hr) was 100 mg/kg; in series [2] (setting [12]), 100 mg/kg; in series [3] (Mus musculus, after 0.5 hr) it was 100 mg/kg; in [3] (setting [13]), 100 mg/kg. Moreover, the “toxicity remark (footnote a to NINCDS classification)” value in [4] is reported as “Extremely toxic”. Further, the “Rotorod: dosage level that elicited loss of balance” value came to 100 mg/kg in series [5] (after 0.5 hr) and 300 mg/kg in [5] (setting [14]).
Turning to `Cc1nc2ccccc2c(=O)n1-c1ccccc1Cl` [mecloqualone, 2-methyl-3-o-chlorophenyl-4(3H)-quinazolinone, reference compound], the minimal effective dose turned out to be 300 mg/kg in series [2] (setting [12]); 30 mg/kg in series [3] (Mus musculus, after 0.5 hr); 100 mg/kg in series [3] (setting [13]). For the same molecule, in [3] (primary evaluation), the “effectiveness in protection against scMet induced seizures, comparison methaqualone/mecloqualone” value was “more effective in protection against scMet induced seizures”. Further, the “toxicity remark (footnote a to NINCDS classification)” value in [4] was “Extremely toxic”. The “Rotorod: dosage level that elicited loss of balance” value in series [5] (after 0.5 hr) turned out to be 30 mg/kg; in series [5] (setting [14]), 100 mg/kg. Besides, the “anticonvulsant activity (in words)” value in series [6] is recorded as “better anticonvulsant agent than methaqualone”.
Take `Cc1ccccc1-n1c(C)nc2ccccc2c1=O` [methaqualone, 2-methyl-3-o-tolyl-4(3H)-quinazolinone, reference compound]: the minimal effective dose in series [2] (Mus musculus, ip, after 0.5 hr) was 100 mg/kg; in [2] (setting [12]), 300 mg/kg; in [3] (Mus musculus, after 0.5 hr), 100 mg/kg; in series [3] (setting [13]) it was 300 mg/kg. For the same molecule, the 50% effective dose (ED50) in series [2] (setting [15]) came to 52 mg/kg; in series [3] (setting [15]), 33.5 mg/kg. For the same molecule, the “activity in the MES test, comparison methaqualone/mecloqualone” value in [2] (primary evaluation) was “more active in the MES test”. In addition, the “prevention of pentylenetetrazol induced convulsive seizures (in words)” value in series [7] was “superior to sodium phenobarbitone”. In series [8], the LD50 at 48 h was over 562 mg/kg. Also, in series [1], the “sedative-hypnotic / hypnotic / depressant activity (in words)” value is reported as “comparable to short-acting barbiturates in terms of sedative-hypnotic activity”. In addition, the “CNS Depression” value in [9] was 8. Also, the responders at 30 mg/kg in series [10] is 0%. The “Rotorod: dosage level that elicited loss of balance” value was 100 mg/kg in series [5] (after 0.5 hr) and 300 mg/kg in series [5] (setting [14]). In addition, the TD50 in series [5] (mouse, in vivo, ip, secondary evaluation, at time of peak effect) worked out at 55 mg/kg.
Take `CCC1(c2ccccc2)C(=O)NC(=O)NC1=O` [phenobartital]: the “protection against maximal electro-shock seizures (in words)” value in [11] is on record as “better protector against maximal electro-shock seizures (MES) then methaqualone”.

Source of the values: patent publication US4183931A, “2-Ketoalkyl-4(3H)-quinazolinones” (Research Corporation, priority 1977, dated 1980).
